Patent USH1923H, “Herbicidal (oxaalkyl) phenyl-substituted heterocycles” (FMC Corporation, priority 1998, dated 2000)

Assays:
soybean [1] = experiment: preemergence herbicidal activity on soybean; assay type: in vivo, Glycine max var. Winchester; conditions: Glycine max, pre-emergence, 0.3 Kg/Ha, after 12-17 days, read-out: PREEMERGENCE HERBICIDAL ACTIVITY (% CONTROL) SOY
Description: (§1) The (oxaalkyl)phenyl-substituted heterocycles of this invention were tested for pre- and postemergence herbicidal activity using a variety of crops and weeds. The test plants included soybean (Glycine max var. Winchester),field corn (Zea mays var. Pioneer 3732), wheat (Triticum aestivum var. Lew), morningglory (Ipomea lacunosa or Ipomea hederacea), […] (Abutilon theophrasti), green foxtail (Setaria viridis), Johnsongrass (Sorghum halepense), blackgrass (Aloepecurus myosuroides), common chickweed (Stellaria media), and common cocklebur (Xanthium strumarium L.).
(§2) For preemergence testing, two disposable fiber flats (8 cm×15 cm×25 cm) for each rate of application of each candidate herbicide were filled to an approximate depth of 6.5 cm with steam-sterilized sandy loam soil. The soil was leveled and impressed with a template to provide five evenly spaced furrows 13 cm long and 0.5 cm deep in each flat. Seeds of soybean, wheat, corn, green foxtail, and johnsongrass were planted in the furrows of the first flat, and seeds of velvetleaf, morningglory, common chickweed, cocklebur, and blackgrass were planted in the furrows of the second flat. The five-row template was employed to firmly press the seeds into place. A topping soil of equal portions of sand and sandy loam soil was placed uniformly on top of each flat to a depth of approximately 0.5 cm. Flats for postemergence testing were prepared in the same manner except that they were planted 9-14 days prior to the preemergence flats and were placed in a greenhouse and watered, thus allowing the seeds to germinate and the foliage to develop.
(§3) In both pre- and postemergence tests, a stock solution of the candidate herbicide was prepared by dissolving 0.27 g of the compound in 20 mL of water/acetone (50/50) containing 0.5% v/v sorbitan monolaurate. For an application rate of 3000 g/ha of herbicide a 10 mL portion of the stock solution was diluted with water/acetone (50/50) to 45 mL.
(§4) The preemergence flats were initially subjected to a light water spray. The four flats were placed two by two along a conveyor belt (i.e., the two preemergence followed by the two postemergence flats). The conveyor belt fed under a spray nozzle mounted about ten inches above the postemergent foliage. The preemergent flats were elevated on the belt so that the soil surface was at the same level below the spray nozzle as the foliage canopy of the postemergent plants. The spray of herbicidal solution was commenced and once stabilized, the flats were passed under the spray at a speed to receive a coverage equivalent of 1000 L/ha. At this coverage the application rates are those shown in the above table for the individual herbicidal solutions. The preemergence flats were watered immediately thereafter, placed in the greenhouse and watered regularly at the soil surface. The postemergence flats were immediately placed in the green-house and not watered until 24 hours after treatment with the test solution. Thereafter they were regularly watered at ground level. After 12-17 days the plants were examined and the phytotoxicity data were recorded.
(§5) Phytotoxicity data were taken as percent control. Percent control was by a method similar to the 0 to 1 00 rating system disclosed in "Research Methods in Weed Science," 2nd ed., B. Truelove, Ed.; Southern Weed Science Society; Auburn University, Auburn, Ala., 1977.

wheat [2] = experiment: preemergence herbicidal activity on wheat; assay type: in vivo, Triticum aestivum var. Lew; conditions: Triticum aestivum, pre-emergence, 0.3 Kg/Ha, after 12-17 days, read-out: PREEMERGENCE HERBICIDAL ACTIVITY (% CONTROL) WHT
Description: as §1, §2, §3, §4, §5

corn [3] = experiment: preemergence herbicidal activity on corn; assay type: in vivo, Zea mays var. Pioneer 3732; conditions: Zea mays, pre-emergence, 0.3 Kg/Ha, after 12-17 days, read-out: PREEMERGENCE HERBICIDAL ACTIVITY (% CONTROL) CRN
Description: as §1, §2, §3, §4, §5

velvetleaf [4] = experiment: preemergence herbicidal activity on velvetleaf; assay type: in vivo; conditions: Abutilon theophrasti, pre-emergence, 0.3 Kg/Ha, after 12-17 days, read-out: PREEMERGENCE HERBICIDAL ACTIVITY (% CONTROL) ABUTH
Description: as §1, §2, §3, §4, §5

morningglory [5] = experiment: preemergence herbicidal activity on morningglory; assay type: in vivo, Ipomea lacunosa or Ipomea hederacea; conditions: Ipomoea, pre-emergence, 0.3 Kg/Ha, after 12-17 days, read-out: PREEMERGENCE HERBICIDAL ACTIVITY (% CONTROL) IPOSS
Description: as §1, §2, §3, §4, §5

chickweed [6] = experiment: preemergence herbicidal activity on chickweed; assay type: in vivo; conditions: Stellaria media, pre-emergence, 0.3 Kg/Ha, after 12-17 days, read-out: PREEMERGENCE HERBICIDAL ACTIVITY (% CONTROL) STEME
Description: as §1, §2, §3, §4, §5

cocklebur [7] = experiment: preemergence herbicidal activity on cocklebur; assay type: in vivo, Xanthium strumarium L.; conditions: Xanthium strumarium, pre-emergence, 0.3 Kg/Ha, after 12-17 days, read-out: PREEMERGENCE HERBICIDAL ACTIVITY (% CONTROL) XANPE
Description: as §1, §2, §3, §4, §5

green foxtail [8] = experiment: preemergence herbicidal activity on green foxtail; assay type: in vivo; conditions: Setaria viridis, pre-emergence, 0.3 Kg/Ha, after 12-17 days, read-out: PREEMERGENCE HERBICIDAL ACTIVITY (% CONTROL) SETVI
Description: as §1, §2, §3, §4, §5

johnsongrass [9] = experiment: preemergence herbicidal activity on johnsongrass; assay type: in vivo; conditions: Sorghum halepense, pre-emergence, 0.3 Kg/Ha, after 12-17 days, read-out: PREEMERGENCE HERBICIDAL ACTIVITY (% CONTROL) SORHA
Description: as §1, §2, §3, §4, §5

soybean [10] = experiment: postemergence herbicidal activity on soybean; assay type: in vivo, Glycine max var. Winchester; conditions: Glycine max, post-emergence, 0.3 Kg/Ha, after 12-17 days, read-out: POSTEMERGENCE HERBICIDAL ACTIVITY (% CONTROL) SOY
Description: as §1, §2, §3, §4, §5

wheat [11] = experiment: postemergence herbicidal activity on wheat; assay type: in vivo, Triticum aestivum var. Lew; conditions: Triticum aestivum, post-emergence, 0.3 Kg/Ha, after 12-17 days, read-out: POSTEMERGENCE HERBICIDAL ACTIVITY (% CONTROL) WHT
Description: as §1, §2, §3, §4, §5

corn [12] = experiment: postemergence herbicidal activity on corn; assay type: in vivo, Zea mays var. Pioneer 3732; conditions: Zea mays, post-emergence, 0.3 Kg/Ha, after 12-17 days, read-out: POSTEMERGENCE HERBICIDAL ACTIVITY (% CONTROL) CRN
Description: as §1, §2, §3, §4, §5

velvetleaf [13] = experiment: postemergence herbicidal activity on velvetleaf; assay type: in vivo; conditions: Abutilon theophrasti, post-emergence, 0.3 Kg/Ha, after 12-17 days, read-out: POSTEMERGENCE HERBICIDAL ACTIVITY (% CONTROL) ABUTH
Description: as §1, §2, §3, §4, §5

morningglory [14] = experiment: postemergence herbicidal activity on morningglory; assay type: in vivo, Ipomea lacunosa or Ipomea hederacea; conditions: Ipomoea, post-emergence, 0.3 Kg/Ha, after 12-17 days, read-out: POSTEMERGENCE HERBICIDAL ACTIVITY (% CONTROL) IPOSS
Description: as §1, §2, §3, §4, §5

chickweed [15] = experiment: postemergence herbicidal activity on chickweed; assay type: in vivo; conditions: Stellaria media, post-emergence, 0.3 Kg/Ha, after 12-17 days, read-out: POSTEMERGENCE HERBICIDAL ACTIVITY (% CONTROL) STEME
Description: as §1, §2, §3, §4, §5

cocklebur [16] = experiment: postemergence herbicidal activity on cocklebur; assay type: in vivo, Xanthium strumarium L.; conditions: Xanthium strumarium, post-emergence, 0.3 Kg/Ha, after 12-17 days, read-out: POSTEMERGENCE HERBICIDAL ACTIVITY (% CONTROL) XANPE
Description: as §1, §2, §3, §4, §5

blackgrass [17] = experiment: postemergence herbicidal activity on blackgrass; assay type: in vivo, Aloepecurus myosuroides; conditions: Alopecurus myosuroides, post-emergence, 0.3 Kg/Ha, after 12-17 days, read-out: POSTEMERGENCE HERBICIDAL ACTIVITY (% CONTROL) ALOMY
Description: as §1, §2, §3, §4, §5

green foxtail [18] = experiment: postemergence herbicidal activity on green foxtail; assay type: in vivo; conditions: Setaria viridis, post-emergence, 0.3 Kg/Ha, after 12-17 days, read-out: POSTEMERGENCE HERBICIDAL ACTIVITY (% CONTROL) SETVI
Description: as §1, §2, §3, §4, §5

johnsongrass [19] = experiment: postemergence herbicidal activity on johnsongrass; assay type: in vivo; conditions: Sorghum halepense, post-emergence, 0.3 Kg/Ha, after 12-17 days, read-out: POSTEMERGENCE HERBICIDAL ACTIVITY (% CONTROL) SORHA
Description: as §1, §2, §3, §4, §5

blackgrass [20] = experiment: preemergence herbicidal activity on blackgrass; assay type: in vivo, Aloepecurus myosuroides; conditions: Alopecurus myosuroides, pre-emergence, 0.3 Kg/Ha, after 12-17 days, read-out: PREEMERGENCE HERBICIDAL ACTIVITY (% CONTROL) ALOMY
Description: as §1, §2, §3, §4, §5

| Compound | activity at 300 g/ha (soybean [1]) [%] | activity at 300 g/ha (wheat [2]) [%] | activity at 300 g/ha (corn [3]) [%] | activity at 300 g/ha (velvetleaf [4]) [%] | activity at 300 g/ha (morningglory [5]) [%] | activity at 300 g/ha (chickweed [6]) [%] | activity at 300 g/ha (cocklebur [7]) [%] | activity at 300 g/ha (green foxtail [8]) [%] | activity at 300 g/ha (johnsongrass [9]) [%] | activity at 300 g/ha (soybean [10]) [%] | activity at 300 g/ha (wheat [11]) [%] | activity at 300 g/ha (corn [12]) [%] | activity at 300 g/ha (velvetleaf [13]) [%] | activity at 300 g/ha (morningglory [14]) [%] | activity at 300 g/ha (chickweed [15]) [%] | activity at 300 g/ha (cocklebur [16]) [%] | activity at 300 g/ha (blackgrass [17]) [%] | activity at 300 g/ha (green foxtail [18]) [%] | activity at 300 g/ha (johnsongrass [19]) [%] | activity at 300 g/ha (blackgrass [20]) [%] |
| --- | --- | --- | --- | --- | --- | --- | --- | --- | --- | --- | --- | --- | --- | --- | --- | --- | --- | --- | --- | --- |
| CC(=O)OC(C)(C)C(Cl)Cc1cc(-n2nc(C)n(C(F)F)c2=O)c(F)cc1Cl (stereo not drawn) [Compound 17] | 70 | 50 | 85 | 100 | 100 | 95 | 80 | 80 | 100 | 80 | 50 | 90 | 100 | 100 | 100 | 60 | 80 | 100 | 100 | – |
| Cn1nc(-c2cc(CC(Cl)C(C)(C)O)c(Cl)cc2F)c(Cl)c1OC(F)F (stereo not drawn) [Compound 3] | 60 | 30 | 40 | 100 | 100 | 100 | 100 | 100 | 75 | 95 | 40 | 70 | 100 | 100 | 100 | 100 | – | 100 | 60 | – |
| Cc1nn(-c2cc(CC(Cl)COC(=O)NC(C)(C)C)c(Cl)cc2F)c(=O)n1C(F)F (stereo not drawn) [Compound 33] | 60 | 20 | 80 | 100 | 70 | 90 | – | 100 | 80 | 90 | 40 | 80 | 100 | 100 | 80 | 100 | 60 | 100 | 80 | 70 |
| CCNC(=O)OCC(Cl)Cc1cc(-n2nc(C)n(C(F)F)c2=O)c(F)cc1Cl (stereo not drawn) [Compound 32] | 100 | 40 | 70 | 100 | 95 | 90 | – | 100 | 95 | 95 | 40 | 80 | 100 | 95 | 100 | 100 | 70 | 100 | 90 | 75 |
